Data published in patent publication US20060281174A1, “Methods for generating insulin-producing cells” (priority 2004, published 2006).

Test system: Human MSCs and Pancl cells
Assay: Co-culture of human MSCs and Pancl cells in induction media with added factors to potentiate differentiation
Assay type: cell-based
Conditions: MSC/Pancl co-culture, induction media 1% ITS, 2% BSA in DMEM; 100 μM, 10 days
Experimental: Design: Human MSCs from Clontech (Palo Alto, CA), passage 4-6, and Pancl cells from ATCC, passage 2-6, were used in the experiment. 5 ×10ˆ5 cells for both cells were seeded in 10 cm tissue culture treated dishes in a 1:1 combination media of DMEM containing 10% FBS and a MSC growth media purchased from CAMBREX (Walkersville, MD). After 2-3 days of culture, the media was replaced by the induction media containing1% ITS, 2% BSA in DMEM. The proteasome inhibitor, Lactocystin, was added into the media at the final concentration of 100 μM to potentiate the differentiation for 10 days.
Design: Human MSCs from Clontech, passage 4-6, and Pancl cells from ATCC, passage 2-6, were used in the experiment. 5 ×10ˆ5 cells for both cells were seeded in 10 cm tissue culture treated dishes in a 1:1 media of DMEM containing 10% FBS, and a MSC growth media purchased from CAMBREX. After 2-3 days of culture, the media was replaced by the induction media containing 1% ITS, 2% BSA in DMEM for 10 days. A growth factor cocktail containing bFGF, EGF, Exendin-4 and Nicotinamide, was added into the media to potentiate the differentiation.
Design: Human MSCs from Clontech, passage 4-6, and Pancl cells from ATCC, passage 2-6, were used in the experiment. 5 ×10ˆ5 cells for both cells were seeded in 10 cm tissue culture treated dishes in a 1:1 media of DMEM with 10% FBS, and MSC growth media purchased from CAMBREX. […]

## CC(=O)N[C@@H](CSC(=O)[C@]1([C@@H](O)C(C)C)NC(=O)[C@H](C)[C@@H]1O)C(=O)O [Lactocystin]
  expression of insulin: No formation of clusters or expression of insulin
  formation of clusters: No formation of clusters
